Results published in US20140066365A1, “USE OF CALIXARENES ASSOCIATED WITH AN ANTIBIOTIC IN THE TREATMENT OF BACTERIAL INFECTIONS” (priority 2011, published 2014).

Experiments:
[1] = test system: EcR3: ESBL-Producing Escherichia coli; assay: Antibiogram by the disk diffusion technique; type: cell-based
Experimental: The bacterial and antibiogramidentification is carried out by the VITEK 2 system (bioMerieux) and by the disk diffusion technique

[2] = test system: EcR1: Penicillinase-Producing Escherichia coli without Associated Resistance; assay: Antibiogram by the disk diffusion technique; type: cell-based; settings: Table A1
Experimental: (§1) 5.1 EcR1: Penicillinase-Producing Escherichia coli without Associated Resistance The bacterial and antibiogramidentification is carried out by the VITEK 2 system (bioMérieux) and by the disk diffusion technique.

[3] = test system: PaR2: Pseudomonas aeruginosa; type: cell-based
Experimental: (§2) The bacterial and antibiogramidentification is carried out by the VITEK 2 system (bioMérieux) and by the disk diffusion technique

[4] = test system: EcR2: Cephalosporinase-Hyperproducing Strain of Escherichia coli; assay: Antibiogram by the disk diffusion technique; type: cell-based
Experimental: The bacterial and antibiogramidentification is carried out by the VITEK 1 system (bioMérieux) and by the disk diffusion technique

[5] = test system: EcR1: Penicillinase-Producing Escherichia coli without Associated Resistance; assay: Antibiogram, MIC by the VITEK 2 system; type: cell-based
Experimental: as §1

[6] = test system: Escherichia coli, Staphylococcus aureus and Pseudomonas aeruginosa strains; assay: Chessboard technique, summary statements over all strains and combinations tested; type: cell-based; settings: strain not stated
Method in brief: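 Checkerboard of 64 antibiotic/Cx1 concentration combinations per strain. FIC index classed as synergy (≤0.5), additive (>0.5–1), indifferent (>1–4) or antagonism (>4). Each strain and combination tested at least 3 times.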

[7] = test system: MRSA strain having a resistance to the aminoglycosides and fluoroquinolones (SaR3); assay: MIC of the compounds used alone, microdilution in a liquid medium (CLSI); type: cell-based, Staphylococcus aureus; settings: antibiotic alone (second value of cell); SaR3
From the text: (§3) The MICs of the antibiotics were previously defined for each strain, by the method of microdilution in a liquid medium (CLSI (Clinical and Laboratory Standards Institute), 2003).

[8] = test system: MRSA strain having a resistance to the aminoglycosides, fluoroquinolones, macrolides-lincosamides-synergistins and ofloxacin (SaR4); assay: as above; type: cell-based, Staphylococcus aureus; settings: antibiotic alone (second value of cell); SaR4
From the text: as §3

[9] = test system: MRSA strain without associated resistance (SaR1); assay: as above; type: cell-based, Staphylococcus aureus; settings: antibiotic alone (second value of cell); SaR1
From the text: as §3

[10] = test system: SaR4: Meticillin-Resistant Staphylococcus aureus; assay: Antibiogram by the disk diffusion technique; type: cell-based
Experimental: as §2

[11] = test system: SaR3: Meticillin-Resistant Staphylococcus aureus; assay: Antibiogram by the disk diffusion technique; type: cell-based
Experimental: as §2

[12] = test system: PaR5: Pseudomonas aeruginosa; assay: Antibiogram by the disk diffusion technique; type: cell-based
Experimental: as §2

[13] = test system: SaR1: Meticillin-Resistant Staphylococcus aureus without Associated Resistance; assay: Antibiogram, inhibition diameter (Table D1); type: cell-based
Experimental: (§4) The bacterial and antibiogramidentification is carried out by the VITEK 2 system (bioMérieux)

[14] = test system: SaR1: Meticillin-Resistant Staphylococcus aureus without Associated Resistance; assay: Antibiogram, MIC by the VITEK 2 system; type: cell-based; settings: SaR1
Experimental: as §4

[15] = test system: PaR3: Pseudomonas aeruginosa; assay: Antibiogram, MIC by the VITEK 2 system; type: cell-based
Experimental: as §4

[16] = test system: Escherichia coli strain ATCC 25922 (wild type); assay: MIC of the compounds used alone, microdilution in a liquid medium (CLSI); type: cell-based; settings: antibiotic alone (second value of cell); E. coli ATCC 25922
From the text: as §3

[17] = test system: penicillinase-producing strain of Escherichia coli without associated resistance (EcR1); assay: as above; type: cell-based; settings: antibiotic alone (second value of cell)
From the text: as §3

[18] = test system: cephalosporinase-hyperproducing strain of Escherichia coli (EcR2); assay: as above; type: cell-based; settings: antibiotic alone (second value of cell)
From the text: as §3

[19] = test system: Staphylococcus aureus strain ATCC 29213 (wild type); assay: as above; type: cell-based; settings: antibiotic alone (second value of cell); S. aureus ATCC 29213
From the text: as §3

[20] = test system: ESBL-producing strain of Escherichia coli, having an associated resistance to the aminoglycosides (EcR3); assay: as above; type: cell-based; settings: antibiotic alone (second value of cell)
From the text: as §3

## Gentamicin
[1]; Cd CA-SFM 2011
  CA-SFM Interpretation: Resistant
[1]; Cd CLSI 2011
  CLSI Interpretation: Intermediate
[1]; Cd EUCAST 2011
  EUCAST Interpretation: Resistant
[1]; Table C1
  Diameter: 12 mm
[1]; Table C1, against Dmin Dmax
  Results: Resistant
[1]; Table C2
  diameter in mm: 12 mm
[2]; EcR1, disk diffusion
  Diameter: 20 mm
[2]; EcR1, interpretation of the diameter against Dmin Dmax
  Results: Susceptible
[3]; Cd CA-SFM 2011
  CA-SFM Interpretation: Susceptible
[3]; Cd CLSI 2011
  CLSI Interpretation: Susceptible
[3]; Cd EUCAST 2011
  EUCAST Interpretation: Susceptible
[3]; Table G1
  Diameter: 21 mm
[3]; Table G1, against Dmin-Dmax
  Results: Susceptible
[3]; Table G2
  diameter in mm: 21 mm
[4]; EcR2, disk diffusion, Table B1
  Diameter: 12
[4]; EcR2, rows that print a diameter, Table B1
  Results: Resistant
[4]; EcR2, Table B2, diameters
  Diameter: 12 mm
[4]; EcR2, from diameter, CA-SFM 2011
  CA-SFM Interpretation: Resistant
[4]; EcR2, from diameter, CLSI 2011
  CLSI Interpretation: Resistant
[4]; EcR2, from diameter, EUCAST 2011
  EUCAST Interpretation: Resistant
[5]; EcR1, MIC against Cc CA-SFM 2011
  CA-SFM Interpretation: Susceptible
[5]; EcR1, MIC against Cc CLSI 2011
  CLSI Interpretation: Susceptible
[5]; EcR1, MIC against Cc EUCAST 2011
  EUCAST Interpretation: Susceptible
[5]; EcR1, Table A2
  MIC mg/L (diameter in mm): ≦1 mg/L
[5]; EcR1, VITEK 2, Table A1
  MIC mg/L: ≦1 mg/L
[5]; EcR1, interpretation of the MIC, Table A1
  Results: Susceptible
[6]
  interaction between the antibiotic and Cx1: synergism
[7]
  MIC: 0.125 µg/mL
[8]
  MIC: 0.25 µg/mL
[9]
  MIC: 0.25 µg/mL
[10]; Table F1
  Diameter: 21
[10]; Table F1, rows with a diameter
  Results: Susceptible
[10]; Table F2, diameters
  Diameter: 21 mm
[10]; from diameter, CA-SFM 2011
  CA-SFM Interpretation: Susceptible
[10]; from diameter, CLSI 2011
  CLSI Interpretation: Susceptible
[10]; from diameter, EUCAST 2011
  EUCAST Interpretation: Susceptible
[11]; Cd CA-SFM 2011
  CA-SFM Interpretation: Susceptible
[11]; Cd CLSI 2011
  CLSI Interpretation: Susceptible
[11]; Cd EUCAST 2011
  EUCAST Interpretation: Susceptible
[11]; Table E1
  Diameter: 20 mm
[11]; Table E1, against Dmin Dmax
  Results: Susceptible
[11]; Table E2
  diameter in mm: 20 mm
[12]; PaR5, Table I1
  Diameter: 25 mm
[12]; PaR5, Table I1, against Dmin-Dmax
  Results: Susceptible
[12]; disk diffusion inhibition diameter, strain PaR5
  diameter in mm: 25 mm
[12]; disk diffusion, PaR5, versus critical diameter CA-SFM 2011
  CA-SFM Interpretation: Susceptible
[12]; disk diffusion, PaR5, versus critical diameter CLSI 2011
  CLSI Interpretation: Susceptible
[12]; disk diffusion, PaR5, versus critical diameter EUCAST 2011, for ** antibiotics the disk load differs and the EUCAST interpretation is not applicable
  EUCAST Interpretation: Susceptible
[13]
  Diameter: 23 mm
[13]; from diameter, against Dmin Dmax
  Results: Susceptible
[14]; Cc CA-SFM 2011
  CA-SFM Interpretation: Susceptible
[14]; Cc CLSI 2011
  CLSI Interpretation: Susceptible
[14]; Cc EUCAST 2011
  EUCAST Interpretation: Susceptible
[14]; Table D1
  MIC mg/L: ≦0.5 mg/L
[14]; Table D1, from MIC
  Results: Susceptible
[14]; Table D2
  MIC mg/L: ≦0.5 mg/L
[15]; Cc CA-SFM 2011
  CA-SFM Interpretation: Resistant
[15]; Cc CLSI 2011
  CLSI Interpretation: Resistant
[15]; Cc EUCAST 2011
  EUCAST Interpretation: Resistant
[15]; Table H1
  MIC: ≧16
  Results: Resistant
[15]; Table H2
  MIC mg/L: ≧16 mg/L
[16]
  Initial MICs: 0.125 mg/L
[17]
  Initial MICs: 0.125 mg/L
[18]
  Initial MICs (mg/L): 2/2 mg/L
[19]
  Initial MICs: 0.25 mg/L
[20]
  Initial MICs (mg/L): 2/2 mg/L
